Assay results from patent US9938301B2, “Dihydropyrimido fused ring derivative as HBV inhibitor” (QILU PHARMACEUTICAL CO., LTD., priority 2014, dated 2018).
Where two headings read alike, the source gives them in different places.

System: HBV DNA in HepG2.2.15 cells
Assay: HBV in vitro dot-blot hybridization test
Type: cell-based, Hepatitis B virus
Description: • 1. Purpose of the test: • The content of HBV DNA in HepG2.2.15 cells was detected by dot-blot hybridization test to evaluate an inhibitory action of the compound on HBV with an EC50 value as an indicator. • 2. Experimental materials: • 2.1 Cell lines: HepG2.2.15 Cells • HepG2.2.15 cell culture media (DMEM/F12, Invitrogen-11330057; 10% serum Invitrogen-10099141; 100 units/mL Penicillin and 10 μg/mL Streptomycin, Invitrogen-15140122; 1% non-essential amino acid, Invitrogen-11140076; 2 mM L-GLUTAMINE, Invitrogen-25030081; 300 µg/ml Geneticin, Invitrogen-10131027 • 2.2 Reagents: • Trypsin (I Invitrogen-25300062) • DPBS (Hyclone-SH30028.01B) • DMSO (Sigma-D2650-100ML) • 96-well cell-culture plate (Corning-3599) • CO2 incubator (HERA-CELL-240) • 20×SSC (Bio-serve Co. Ltd) • Tris-HCl (Aldirch-154563-1KG) • NaOH (Sinopharm 10019718) • NaCl (Sinopharm 10019308) • Hybridization solution (Major BioTech Co. Ltd, IMMUNE GOLD-HYB-500) • DIG Wash and Block Buffer set (Roche-11585762001) • Anti-digoxigenin-AP, Fab fragments from sheep (Roche-11093274910) • 2.3 Materials and Instruments: • Positively-Charged Nylon Membrane (GE-RPN2250B) • Transfer Membrane Instrument (Bio-Rad, 170-6545) • Hybridization Oven (HL-2000 Hybrilinker) • 3. Testing steps and Methods: • 3.1 HepG2.2.15 cells (4×10^4 cells/well) were planted into a 96-well plate, and at 37° C., 5% CO2 cultured overnight. • 3.2 On Day 2, the compounds were diluted in totally 6 concentrations with a dilution gradient of five times. The compounds at different concentrations were added into the culture wells in duplicate. The final concentration of DMSO in the culture media was 1%. 1 μM GLS4 was used as 100% inhibition control; 1% DMSO as 0% inhibition control. • 3.3 On Day 5, replacing with the fresh culture media containing the compound was performed. • 3.4 On Day 8 and Day 9, the culture media in the culture wells was removed, and the cells were harvested for dot-blot hybridization. • The lysate was added into a culture well, and at 37° C. incubating for half an hour to disintegrate cells; the supernatant was obtained by centrifugation and transferred into a new microplate; a denaturation solution was added, after sufficient mixing the denatured sample was transferred and imprinted onto a Nylon membrane, the nucleic acid was fixed onto the membrane by UV cross-linking. • Pre-hybridization: the membrane was incubated at 60° C. in a hybridization solution for 1 hour. • Hybridization: heating the denatured digoxin-labelled HBV DNA probe and incubating at 60° C. overnight. • Membrane Washing: performing high strigency washing twice, low strigency washing for 3 times. • Blocking: incubating the membrane at room temperature in a blocking solution for 30-60 minutes. • Hybridization: diluting the Antibody Solution with the blocking solution, in which the membrane was placed and incubated at room temperature for 30-60 minutes. • Developing: washing the membrane in a Detection Buffer for 5 minutes, followed by adding a developing solution, pressing and exposing. • The photos was saved in tiff format, and a gray value of the dot was quantified with quantity one software. • 3.5 Data Analysis: • 3.5.1 The inhibition percentage was calculated: % Inh.=[1−(sample dot gray value−1 μM GLS4 dot gray value 1)/(DMSO control dot gray value−1 μM GLS4 dot gray value 1)]×100. • 3.5.2 Calculating EC50: the concentration of the compound for 50% inhibition of HBV (EC50) was calculated by using GraphPad Prism Software. • 4.

[1] = Hepatitis B virus, HepG2.2.15, dot-blot hybridization assay, read-out: Concentration for 50% inhibition of HBV (EC50)value
[2] = Hepatitis B virus, HepG2.2.15, summary list of target compounds, Examples 1-165 (same as Table 2), read-out: BIOACTIVITY (inhibitory actions on HBV DNA, EC50)

Compound	EC50 [1] [nM]	EC50 [2] [nM]	EC50 (summary list of target compounds, Examples 1-165 (same as Table 2), read-out: BIOACTIVITY (inhibitory actions on HBV DNA, EC50)) [nM]
CCOC(=O)C1=C2C[C@H](NC(=O)C(F)(F)F)CN2C(c2nccs2)=N[C@H]1c1ccc(F)cc1Cl [Example 142]	100 to 500	100 to 500	–
CCOC(=O)C1=C2CC(NS(C)(=O)=O)CN2C(c2nccs2)=N[C@H]1c1ccc(F)cc1Br (stereo partly drawn) [Example 58]	< 100	< 100	–
CCOC(=O)C1=C2C[C@H](CS(C)(=O)=O)CN2C(c2nccs2)=N[C@H]1c1ccc(F)cc1Br [Example 114]	100 to 500	100 to 500	–
COCOC(=O)C1=C2CCCN2C(c2nccs2)=NC1c1ccc(F)cc1Br (racemic) [Example 80]	1000 to 5000	1000 to 5000	–
CCOC(=O)C1=C2CC(NS(=O)(=O)C3CC3)CN2C(c2nccs2)=N[C@H]1c1ccc(F)cc1Br (mixture of isomers) [Example 60]	< 100	< 100	–
COCC1CC2=C(C(=O)OC)C(c3ccc(F)cc3Br)N=C(c3nccs3)N2C1 (racemic) [Example 10]	1000 to 5000	1000 to 5000	–
CCOC(=O)C1=C2C[C@H](C(=O)NS(=O)(=O)C(F)(F)F)CN2C(c2nccs2)=N[C@H]1c1ccc(F)cc1F [Example 137]	1000 to 5000	1000 to 5000	–
CCOC(=O)C1=C2C[C@@H](c3nnn[nH]3)CN2C(c2nccs2)=N[C@H]1c1ccc(F)cc1Br [Example 33]	1000 to 5000	1000 to 5000	–
CCOC(=O)C1=C2C[C@H](NC(=O)OC(C)C)CN2C(c2nccs2)=N[C@H]1c1ccc(F)cc1Br [Example 47]	< 100	< 100	–
COC(=O)C1=C2C[C@H](NS(=O)(=O)C3CC3)CN2C(c2nccs2)=N[C@H]1c1ccc(F)cc1Cl [Example 156]	< 100	< 100	–
CCOC(=O)C1=C2C[C@H](NS(=O)(=O)C(F)F)CN2C(c2nccs2)=N[C@H]1c1ccc(F)cc1Br [Example 124]	< 100	< 100	–
CCOC(=O)C1=C2C[C@@H](C#N)CN2C(c2nccs2)=N[C@H]1c1ccc(F)cc1Cl [Example 25]	1000 to 5000	1000 to 5000	–
CCOC(=O)C1=C2COC(=O)N2C(c2nccs2)=NC1c1ccc(F)cc1Br (racemic) [Example 67]	100 to 500	100 to 500	–
CCOC(=O)C1=C2C[C@@H](CS(C)(=O)=O)CN2C(c2nccs2)=N[C@H]1c1ccc(F)cc1Br [Example 113]	100 to 500	100 to 500	–
CCOC(=O)C1=C2C[C@@H](CN3CCOCC3)CN2C(c2nccs2)=NC1c1ccc(F)cc1Br (mixture of isomers) [Example 18]	–	–	1000 to 5000
CCOC(=O)C1=C2CCCN2C(c2nccs2)=NC1c1ccc(F)cc1C (racemic) [Example 71]	100 to 500	100 to 500	–
CCOC(=O)C1=C2C[C@H](CC(=O)O)CN2C(c2nccs2)=N[C@H]1c1ccc(F)cc1Br [Example 14]	500 to 1000	500 to 1000	–
CCOC(=O)C1=C2CN(C(=O)C3(C)COC3)CCN2C(c2nccs2)=N[C@H]1c1ccc(F)cc1Br [Example 90]	100 to 500	100 to 500	–
CCOC(=O)C1=C2CCC(=O)N2C(c2nccs2)=NC1c1ccc(F)cc1Br (racemic) [Example 68]	1000 to 5000	1000 to 5000	–
COC(=O)C1=C2C[C@H](NS(C)(=O)=O)CN2C(c2nccs2)=N[C@H]1c1ccc(F)c(Cl)c1 [Example 164]	1000 to 5000	1000 to 5000	–
CCOC(=O)C1=C2C[C@H](NS(=O)(=O)C(F)(F)F)CN2C(c2nccs2)=N[C@H]1c1ccc(F)cc1Br [Example 64]	100 to 500	100 to 500	–
CCOC(=O)C1=C2C[C@H](NC(=O)C3COC3)CN2C(c2nccs2)=N[C@H]1c1ccc(F)cc1Cl [Example 139]	1000 to 5000	1000 to 5000	–

Compound	EC50 [1] [nM]	EC50 [2] [nM]	EC50 (summary list of target compounds, Examples 1-165 (same as Table 2), read-out: BIOACTIVITY (inhibitory actions on HBV DNA, EC50)) [nM]
CCOC(=O)C1=C2CC(NC(=O)OC(C)C)CN2C(c2nccs2)=N[C@H]1c1ccc(F)cc1Br (mixture of isomers) [Example 45]	< 100	< 100	–
CCOC(=O)C1=C2CNC(=O)CN2C(c2nccs2)=NC1c1ccc(F)cc1Br (racemic) [Example 104]	1000 to 5000	1000 to 5000	–
CCS(=O)(=O)N[C@H]1CC2=C(C(=O)OC)[C@H](c3ccc(F)cc3Cl)N=C(c3nccs3)N2C1 [Example 158]	< 100	< 100	–
CCOC(=O)C1=C2C[C@H](N[S+]([O-])C(C)(C)C)CN2C(c2nccs2)=N[C@H]1c1ccc(F)cc1Cl (stereo partly drawn) [Example 140]	500 to 1000	500 to 1000	–
CCOC(=O)C1=C2C[C@H](NS(=O)(=O)C(C)C)CN2C(c2nccs2)=N[C@H]1c1ccc(F)cc1Br [Example 117]	< 100	< 100	–
CCOC(=O)C1=C2C[C@H](NS(C)(=O)=O)CN2C(c2nccs2)=N[C@H]1c1ccc(F)cc1 [Example 145]	500 to 1000	500 to 1000	–
CCOC(=O)C1=C2CCN2C(c2nccs2)=NC1c1ccc(F)cc1Br (racemic) [Example 112]	1000 to 5000	1000 to 5000	–
CCOC(=O)C1=C2CN(Cc3cocn3)CCN2C(c2nccs2)=NC1c1ccc(F)cc1Br (stereo not drawn) [Example 100]	1000 to 5000	1000 to 5000	–
CCOC(=O)C1=C2C[C@H](CO)CN2C(c2nccs2)=N[C@H]1c1ccc(F)cc1Br [Example 7]	100 to 500	100 to 500	–
CCOC(=O)C1=C2C[C@@H](N)CN2C(c2nccs2)=N[C@H]1c1ccc(F)cc1Br [Example 40]	1000 to 5000	1000 to 5000	–
CCOC(=O)C1=C2C[C@H](CN3CCC[C@H]3C(=O)OC)CN2C(c2nccs2)=N[C@H]1c1ccc(F)cc1Br [Example 22]	1000 to 5000	1000 to 5000	–
CCOC(=O)C1=C2C[C@H](NC(C)=O)CN2C(c2nccs2)=N[C@H]1c1ccc(F)cc1Br [Example 50]	1000 to 5000	1000 to 5000	–
CCOC(=O)C1=C2CN(CC(=O)OC)CCN2C(c2nccs2)=N[C@H]1c1ccc(F)cc1Br [Example 98]	1000 to 5000	1000 to 5000	–
CCOC(=O)C1=C2CC(C(=O)O)CN2C(c2nccs2)=NC1c1ccc(F)cc1Br (racemic) [Example 23]	1000 to 5000	1000 to 5000	–
CCOC(=O)C1=C2CN(C(=O)CN)CCN2C(c2nccs2)=N[C@H]1c1ccc(F)cc1Br [Example 89]	1000 to 5000	1000 to 5000	–
CCOC(=O)C1=C2C(N(C)CCO)CCN2C(c2nccs2)=NC1c1ccc(F)cc1Cl (racemic) [Example 2]	1000 to 5000	1000 to 5000	–
CCOC(=O)C1=C2C[C@H](NS(=O)(=O)c3cnn(C)c3)CN2C(c2nccs2)=N[C@H]1c1ccc(F)cc1Cl [Example 132]	< 100	< 100	–
CCOC(=O)C1=C2CN(Cc3ccc(OC)cc3)C[C@@H](C(=O)OC)N2C(c2nccs2)=N[C@H]1c1ccc(F)cc1Br [Example 115]	100 to 500	100 to 500	–
CCOC(=O)C1=C2C[C@@H](N(C)C)CN2C(c2nccs2)=N[C@H]1c1ccc(F)cc1Br [Example 37]	1000 to 5000	1000 to 5000	–
CCOC(=O)CN(C)C[C@@H]1CC2=C(C(=O)OCC)[C@H](c3ccc(F)cc3Br)N=C(c3nccs3)N2C1 [Example 19]	1000 to 5000	1000 to 5000	–
CCOC(=O)C1=C2CN(Cc3ccc(OC)cc3)S(=O)(=O)CN2C(c2nccs2)=N[C@H]1c1ccc(F)cc1Br [Example 134]	1000 to 5000	1000 to 5000	–
CCOC(=O)C1=C2C[C@@H](NS(C)(=O)=O)CN2C(c2nccs2)=N[C@H]1c1ccc(F)cc1Cl [Example 126]	< 100	< 100	–
